# According to US20200338028A1, “BENZENESULFONAMIDE DERIVATIVES AND METHOD FOR MODULATING LIPID RAFT” (Gongwin Biopharm Co., Ltd., priority 2017, published 2020):
# Peptide text beside a SMILES is read from it. * marks the point of attachment. Cbz = O=C(OCc1ccccc1)*; CH2F = FC*
# What was measured:
# Type in all cases: cell-based, human
# PC-3 cells [1] = test: PTS-induced apoptosis with Z-VAD-FMK (PI staining and nucleosomal DNA fragmentation assay); conditions: PC-3, 24 hours, FIG. 2E and 2F
# Protocol: Flow cytometric analysis was performed as follows. Cells were harvested by trypsinization, fixed with 70% (v/v) alcohol at 4° C. for 30 min and washed with PBS. After centrifugation, the cells were incubated in phosphate-citric acid buffer (0.2 mol/l NaHPO4, 0.1 mol/l citric acid, pH 7.8) for 30 min at room temperature. The cells were then centrifuged and resuspended with 0.5 ml propidium iodide (PI) solution containing Triton X-100 (0.1% v/v), RNase (100 μg/ml) and PI (80 μg/ml). DNA content was analyzed with the FACScan and CellQuest software (Becton Dickinson, Mountain View, Calif., United States).
# The DNA fragmentation was determined for cell death determination by use of the Cell Death Detection ELISAplus kit (Roche, Mannheim, Germany) The assay was based on the quantitative in vitro determination of cytoplasmic histone-associated DNA fragments (mono- and oligonucleosomes) after induced cell death. After the treatment with the compound, the cells were lysed and centrifuged, and the supernatant was used for the detection of nucleosomal DNA according to the manufacturer's protocol.
# PC-3 cells [2] = test: colony formation (clonogenic) assay; conditions: PC-3, PTS 1.5 mM, 10 days, FIG. 6E
# Protocol: To assay the anchorage-dependent clonogenic effect, each individual PC-3 and DU-145 cells (150 cells/well) were seeded in a 6-well plate. After a 10-day treatment with p-TSA, the cell colonies were rinsed with phosphate-buffered saline (PBS), stained with 0.4% (w/v) crystal violet dissolved in 20% methanol, and lysed by 50 mM sodium citrate dissolved in 50% ethanol. The absorbance was read at a wavelength of 595 nm.
# To further substantiate the role of Akt, the Myr-Akt overexpressed PC-3 cells were prepared with the method shown as follows. The plasmid encoding Myr-Akt, an N-terminally myristoylation signal-attached Akt, was a gift from Professor Mien-Chie Hung (The University of Texas, M.D. Anderson Cancer Center). For transfection, PC-3 cells were seeded into 60-mm tissue culture dishes with 30% confluence and grown for 24 h to 50-60% confluence. Each dish was washed with serum-free Opti-MEM (Life Technologies), and 2 ml of the serum-free Opti-MEM was then added. Aliquots containing Myr-Akt expression vector or a control plasmid in serum-free Opti-MEM were transfected into cells using Lipofectamine 2000 (Invitrogen) following the manufacturer's instructions. After incubation for 6 h at 37° C., cells were washed with serum-free Opti-MEM and incubated in 10% FBS-containing RPMI-1640 medium for 48 h. The cells were treated with or without p-TSA and then the related analyses were performed. […] Furthermore, the functional rescue of Myr-Akt was determined. […] However, overexpression of Myr-Akt had minimal effect on p-TSA-induced cyclin D1 down-regulation.
# DU-145 cells = test: Western blot of Bcl-2 family members, cell cycle regulators and Akt/mTOR/p70S6K pathway signals
# Protocol: (§1) In addition, protein expression assay of each Mcl-1, Bcl-2, Bid, PUMA and Bak was performed by western blotting with methods described as follows. After treatment of PC-3 and DU145 cells with p-TSA, the cells were harvested with trypsinization, centrifuged and lysed in 0.1 ml of lysis buffer containing 10 mM Tris-HCl (pH 7.4), 150 mM NaCl, 1 mM EGTA, 1% Triton X-100, 1 mM PMSF, 10 μg/ml leupeptin, 10 μg/ml aprotinin, 50 mM NaF and 100 μM sodium orthovanadate. Total protein was quantified, mixed with the sample buffer and boiled at 90° C. for 5 min. Equal amount of protein (30 μg) was separated by electrophoresis in 8% or 12% SDS-PAGE, transferred to PVDF membranes and detected with specific antibodies (1:1000 dilution) for each of Mcl-1, Bcl-2, Bid, PUMA and Bak proteins. The immunoreactive proteins after incubation with appropriately labeled secondary antibody (1:3000 dilution) were detected with an enhanced chemiluminescence detection kit (Amersham, Buckinghamshire, United Kingdom). […] These effects were correlated with the mitochondrial stress.
# (§2) During G1 phase, cells grow in size and synthesize mRNA and proteins which are necessary to DNA synthesis. The serine/threonine kinases mTOR and p70S6K that regulate protein synthesis (mRNA translation) through affecting the phosphorylation or activities of several downstream translation factors are critical regulators in G1 phase. Protein expression assay of each Akt, mTOR 4E-BP1 and p70S6K was performed by Western blotting.
# PC-3 cells [3] = test: as above; conditions: PC-3, 1 h, FIGS. 6A to 6D
# Protocol: as §1, §2
# [4] = particularly in DU-145 cells, 1 h
smiles,measurement,setting,value
COC(=O)C[C@H](NC(=O)[C@H](C)NC(=O)[C@@H](NC(=O)OCc1ccccc1)C(C)C)C(=O)CF [Z-VAD-FMK] (Cbz-Val-Ala-Asp(OMe)-CH2F),effect of Z-VAD-FMK on PTS-induced apoptosis,PC-3 cells [1],profoundly inhibited PTS-induced apoptosis
"CC(C)CCC[C@@H](C)[C@H]1CC[C@H]2[C@@H]3CC=C4C[C@@H](O)CC[C@]4(C)[C@H]3CC[C@]12C [cholesterol, reference compound]","effect of cholesterol on PTS-induced inhibition of cell growth, colony formation assay",PC-3 cells [2],significantly rescued PTS-induced inhibition of cell growth
same,effect of cholesterol supplement on p-TSA-induced decrease of Akt and p70S6K phosphorylation,"DU-145 cells; DU-145, 1 h, FIGS. 6A to 6D",significantly rescued
same,"Akt phosphorylation, cholesterol by itself",DU-145 cells; [4],increase
same,"cyclin D1 protein expression, cholesterol by itself",DU-145 cells; [4],decrease
same,effect of cholesterol supplement on p-TSA-induced decrease of Akt and p70S6K phosphorylation,PC-3 cells [3],significantly rescued
